{
  "source": "patent US20240226126A1",
  "about": "“COMPOSITIONS FOR TREATMENT OF PSORIASIS” (The Board of Trustees of the Leland Stanford Junior …, priority 2021, published 2024)",
  "key": {"[1]": {"test_system": "Human Primary keratinocytes", "experiment": "Cytokine response of TNF-α/IL-17 stimulated keratinocytes (Luminex)", "assay_type": "cell-based", "conditions": "TNF-α 10 ng/ml and IL-17 10 ng/ml, 48 hours", "description": "Human Primary keratinocytes were purchased from Thermo Fisher. Keratinocytes were cultured in medium 154 supplemented with HKGS, split using TrypLE and neutralized using DMEM supplemented with 10% FBS. Cells were split to keep 20-80% confluency and not passaged above passage 5. Keratinocytes were detached using TrypLE Express, Trypsin Neutralizer solution was added and the detached cells transferred to a sterile conical tube. Cells were resuspended in 15 ml medium with HKGS supplemented (cat no S-001-K) but without hydrocortisone. The cells were pipetted up and down with a 10 ml pipette to ensure a homogeneous cell suspension.\nHuman primary keratinocytes detached as described above, were resuspended in PBS at 1×10^6 cells/ml and filtered through a 35 μm cell strainer. Cells were stained with CellTrace Violet at 5 μM for 20 minutes at 37° C., 5% CO2. After staining, DMEM supplemented with 10% FBS was added to stop staining and cells was incubated at 37° C., 5% CO2 for 5 minutes. After incubation, cells were washed with PBS 1× and resuspended in Medium 154 supplemented with HGKS without hydrocortisone at 6×10^5 cells/ml and 200 μl was added to wells in a 96-well flat bottom cell culture plate. Cells were incubated overnight at 37° C., 5% CO2/95% air. […]\nSupernatants were analyzed for cytokines IL-6, IL-8, and CXCL1 using Luminex. […] Samples were analyzed on a Bio-Rad Luminex 200 analyzer. […]"}, "[2]": {"test_system": "primary psoriasis keratinocytes (PSOKC)", "experiment": "MTT proliferation assay, primary psoriasis keratinocytes", "assay_type": "cell-based, human", "conditions": "for proliferation in PSOKCs: 10 μM", "description": "MTT assays. 10000 third-passage adult keratinocytes per well, or 25000 for IC50 curves, were seeded on a collagen-coated 96 well plate, and incubated with 50/50 (Medium 154 and Keratinocyte—SFM medium, Invitrogen with Human Keratinocytes Growth Supplement, S-001-5, Invitrogen, and Medium 154 supplement M-154-6 500, Invitrogen) with 1% antibiotic-antimycotic (30-004-CI, Mediatech Inc) for 48 h. 10 ul MTT reagent (MTT proliferation assay, ATCC, Manassas, US) was added for 4 h, 100 ul detergent was added to each well for 4 hours, and absorbance read at 570 nm (Spectramax M5, Molecular Devices, US), normalized to cell-free control absorbance.\nSmall molecule inhibition. All small molecules were diluted into concentrated stock solutions (all except YM-244769 were made into 50 mM stock solutions) in DMSO, and stored in aliquots at −20 C. Aliquots were thawed, then diluted to a 1000× stock concentration, then added to media so that final DMSO concentration is 0.1%. All in vitro studies entailing small molecule inhibition were accessed over 24 hour incubation period.\nStatistical analysis. Microrarray data was analyzed using the affy package from Bioconductor on R statistical software package. Other statistical analysis was performed using Graphpad Prism 7.03, and statistical tests (unpaired t-tests with Welch correction, paired t-test, Mann-Whitney unpaired test, and linear regression analysis with goodness of fit) and sample sizes are outlined in each figure legend. Components of signature for goodness of fit by linear regression analysis were extrapolated from the benzamil rank aggregation algorithm All error bars denotes standard error of the mean. For IC50 calculations, MTT data absorbance values were calculated for percent change from the 0.1% DMSO vehicle condition. A non-linear fitted curve [log (inhibitor) vs response (three parameters)] in GraphPad Prism 7 was used to determine IC50 values. For mouse and xenograft experiments, ad hoc power calculations were based on prior phenotypic characterization of these models. Transgenic mice were randomized from same litters when possible, or based on similar phenotypic disease severity, and all experiments were run in triplicates or more. Sample size of xenografts mice studies were based on patient sample availability and a predicted graft take rate of 80%. For all comparisons, p values of less than 0.05 were considered statistically significant. All tests were two-tailed unless specified in figure legends.\n(§1) Small molecule inhibitors. 10 uM benzamil hydrochloride hydrate (Sigma B2417), 10 uM amiloride hydrochloride (Tocris 890) 10 uM zoniporide dihydrochloride (Tocis 2727), 10 nM YM-244769 (Tocris 4544), 10 uM SEA 0400 2-[4-[(2,5-944 difluorophenyl)methoxy]phenoxy]-5-ethoxyaniline) (Tocris 6164), 10 uM triamterene (Sigma-Aldrich T4143)."}, "Rac1V12 transgenic mice": {"test_system": "Rac1V12 transgenic mice", "experiment": "Rac1V12 transgenic mouse model of psoriasis", "assay_type": "in vivo", "description": "Transgenic mice and mice for xenografting Rac1V12-transgenic mice were generated as previously described. For xenografting, NOD/SCID mice were used (NOD.CB17-PrkdcSCID/J mice; stock 001303; The Jackson Laboratory).\nTopical formulation and administration. A rudimentary preparation of benzamil was tested using benzamil (6 mg/ml, benzamil, Sigma) in 100% ethanol. This solution was then topically applied through submerged and air-drying tails of mice under anesthesia, once daily for 15 days. Similarly, benzamil was suspended in water (2 mg/ml), then mixed into Vaseline, vortexed and centrifuged until a clear solution was obtained. A final formulation of benzamil is described in supplementary material and methods. For intraperitoneal injections, benzamil was dissolved at 2 mg/ml in water, and 0.7, 1.4 or 2.1 mg/kg was injected IP daily. For osmotic pump injections, Alzet osmotic pumps were used, (Alzet minipump 1002). Pumps were filled with 100 ul of benzamil in ethanol under sterile conditions, at a final dose of 2 mg/kg/day, and subcutaneous, inter-scapular implantations were performed under anesthesia. Pumps were replaced once for a total of 2×14 days treatment period.\nTopical formulation of benzamil. A labrasol (88%) based formulation of benzamil was generated containing benzamil (1%, w/w), span-20 (1%) and cetyltrimethylammonium bromide (CTAB) (10%). Constituents were dissolved in ethyl alcohol, mixed well using vortex and sonication at 37° C. until a clear solution was obtained. Ethyl alcohol was evaporated in a Speedvac. The residue was suspended in Labrasol and homogenized to obtain the final formulation.\nFor a final formulation of benzamil (for use on human reconstructed skin), 52 ml water, 5.2 ml glycerin, 9.7 ml rice bran oil, 4 ml caprylic aid triglyceride, 6.2 g cetearyl alcohol, 8.6 g 50/50 mixture of cetearyl glucoside and cetearyl alcohol and 3.5 g cocoa butter was heated to 75° C. until dissolved, removed from heat, mixed using Cimarec 2 magnetic stir. At 45° C. […]"}, "[3]": {"test_system": "V12KC (primary keratinocytes transduced with V12 Rac1)", "experiment": "Proliferation of V12 Rac1 transduced primary keratinocytes vs LacZ control", "assay_type": "cell-based", "conditions": "Homo sapiens, Keratinocyte"}, "PSOKCs": {"test_system": "PSOKCs", "experiment": "Intracellular pH assay (pHrodo red)", "assay_type": "cell-based, human", "conditions": "PSOKCs / primary keratinocytes overexpressing Rac1, 24 h, 10 uM; listed as Zoniporide", "description": "Intracellular pH assays 25,000 were seeded per well of 96-well plate and allowed cells to settle and recover for 24 hrs. Small molecules or 0.1% DMSO vehicle control was added to culture media for 24 hours (n=6-8). Cells were washed once with 1× Live Cell Imaging Solution (LCIS) (ThermoFisher A14291DJ), and then incubated with pHrodo red (ThermoFisher P35372), PowerLoad (ThermoFisher P35372), in LCIS with added 1:5000 Hoechst (Life Technologies) for 30 min at 37 C 5% CO2 with corresponding small molecule added at same concentration used for 24 hour incubation.\nas §1\nIntracellular pH assays and standard curves. Cells were also washed 3 times with 1×LCIS with the last wash of 100 uL kept on cells. For generation of pH standard curve, additional wells (n=6-8) were treated as described with an addition of 0.1% DMSO vehicle for 24 hours. […] The 96-well plate was then read on a fluorescence microplate reader (Spectramax M5, Molecular Devices) with excitation/emission of […] and 361/497. […]"}},
  "note": "Entries after “also recorded” stand apart in the source; their conditions may differ. Like-named read-outs stand apart in the source and are kept apart here.",
  "data": [
    {"molecule": "C=C(CC)C(=O)c1ccc(OCC(=O)O)c(Cl)c1Cl", "note": "[Ethacrynic acid]", "values": [
      {"measurement": "concentration with decrease of IL-8", "setting": "[1]", "result": 10, "unit": "µM"}
    ]},
    {"molecule": "Cc1cc(I)ccc1Nc1c(C(=O)NOCC2CC2)cc(F)c(F)c1F", "note": "[PD198306]", "values": [
      {"measurement": "concentration with decrease of CXCL1", "setting": "[1]", "result": 100, "unit": "nM"}
    ]},
    {"molecule": "N=C(N)NC(=O)c1nc(Cl)c(N)nc1N", "note": "[amiloride]", "values": [
      {"measurement": "proliferation in PSOKCs", "setting": "[2]", "result": "not achieved by amiloride or triamterene; also recorded: not amiloride or triamterene reduced proliferation"},
      {"measurement": "psoriasiform hyperplasia", "setting": "Rac1V12 transgenic mice; systemic", "result": "failed to demonstrate any effect"}
    ]},
    {"molecule": "NC(=NCc1ccccc1)NC(=O)c1nc(Cl)c(N)nc1N", "note": "[benzamil]", "values": [
      {"measurement": "IC50", "setting": "[2]; cells from 5 psoriasis donors, read-out: IC50 on proliferation", "result": "~1000", "unit": "nM"},
      {"measurement": "IC50", "setting": "[2]; range across donors, read-out: IC50 range in five psoriasis donor primary keratinocyte cultures", "result": "0.1 to 4600", "unit": "nM"},
      {"measurement": "IC50", "setting": "[3]", "result": 990, "unit": "nM"}
    ]},
    {"molecule": "C[C@H]1C[C@H]2[C@@H]3CCC4=CC(=O)C=C[C@]4(C)[C@@]3(F)[C@@H](O)C[C@]2(C)[C@@]1(O)C(=O)CCl", "note": "[clobetasol]", "values": [
      {"measurement": "epidermal thickness", "setting": "Rac1V12 transgenic mice; topical, compared to vehicle", "result": "reduction in epidermal thickness"}
    ]},
    {"molecule": "Nc1nc(N)c2nc(-c3ccccc3)c(N)nc2n1", "note": "[triamterene]", "values": [
      {"measurement": "proliferation in PSOKCs", "setting": "[2]", "result": "not achieved by amiloride or triamterene; also recorded: not amiloride or triamterene reduced proliferation"}
    ]},
    {"molecule": "N=C(N)NC(=O)c1cnn(-c2cccc3ncccc23)c1C1CC1", "note": "[zoniporide]", "values": [
      {"measurement": "proliferation in PSOKCs", "setting": "[2]", "result": "recapitulated benzamil's significant capacity to reduce proliferation"},
      {"measurement": "proliferation in PSOKCs", "setting": "[2]; listed as Zoniporide", "result": "reduced proliferation in PSOKCs to levels observed by Benzamil"},
      {"measurement": "intracellular pH", "setting": "PSOKCs", "result": "significantly reduced intracellular pH"}
    ]},
    {"molecule": "Bromocriptine", "values": [
      {"measurement": "signs of improvement (scaling, ulceration, erythema, epidermal thickening)", "setting": "Rac1V12 transgenic mice; intraperitoneal 10 mg/kg every other day, 20 treatments, vs baseline", "result": "improved after treatment"}
    ]}
  ]
}
